According to the supplement of paper PMC10331698:
± gives the standard deviation of the averaged measurements.

Assays:
Test in all cases: level (log10 ratio to DMSO vehicle control); higher = higher biomarker level / cell amount than vehicle control
Conditions in all cases: in DMSO
[1] = compound: Cn1cnc([N+](=O)[O-])c1Sc1ncnc2[nH]cnc12 [Azathioprine]
Procedure: (§1)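 BioMAP Diversity Plus panel of 12 human primary cell co-culture systems (3C, 4H, LPS, SAg, BT, BF4T, BE3C, CASM3C, HDF3CGF, KF3CT, MyoF, Mphg). Compounds were added 1 h before stimulation and left for 24 h (MyoF 48 h; BT 72 h for soluble read-outs or 6 d for IgG). Biomarkers were read by ELISA, cytotoxicity by SRB, PBMC viability and proliferation by Alamar Blue. Each well value was divided by the mean of 8 DMSO control wells on the same plate and log10 transformed; duplicate blinded samples were tested at 4 concentrations.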

[2] = compound: O=C(O)C(F)(F)C(F)(F)C(F)(F)C(F)(F)C(F)(F)F [Perfluorohexanoic acid]
Procedure: as §1

[3] = compound: O=S(=O)(O)C(F)(F)C(F)(F)C(F)(F)C(F)(F)F [Perfluorobutanesulfonic acid]
Procedure: as §1

| Test System | level (log10) ([1]; 1400 nM) | level (log10) ([1]; 4200 nM) | level (log10) ([1]; 13000 nM) | level (log10) ([1]; 38000 nM) | level (log10) ([2]; 6700 nM) | level (log10) ([2]; 20000 nM) | level (log10) ([2]; 60000 nM) | level (log10) ([3]; 6700 nM) | level (log10) ([3]; 20000 nM) | level (log10) ([3]; 60000 nM) |
| --- | --- | --- | --- | --- | --- | --- | --- | --- | --- | --- |
| BF4T:CD90 | -0.0025 ± 0.00071 | -0.0075 ± 0.0035 | -0.0305 ± 0.023 | -0.024 ± 0.018 | -0.0045 ± 0.011 | -0.0005 ± 0.011 | -0.007 ± 0.011 | -0.007 ± 0.0042 | -0.008 ± 0.021 | -0.015 ± 0.011 |
| BF4T:SRB | 0.016 ± 0.014 | -0.0045 ± 0.0092 | -0.0025 ± 0.0021 | -0.005 ± 0.0028 | -0.0025 ± 0.00071 | -0.0095 ± 0.0092 | 0.0105 ± 0.0064 | -0.006 ± 0.0099 | -0.0085 ± 0.005 | -0.009 ± 0.0028 |
| 3C:SRB | -0.006 ± 0.0014 | -0.016 ± 0.0071 | -0.0275 ± 0.005 | -0.0955 ± 0.019 | -0.0065 ± 0.0078 | -0.011 ± 0.0057 | -0.001 ± 0.0028 | 0.004 ± 0.0099 | -0.0095 ± 0.0035 | -0.021 ± 0.0042 |
| BT:Secreted IgG | -0.866 ± 0.086 | -0.986 ± 0.019 | -0.857 ± 0.054 | -0.672 ± 0.0085 | 0.0085 ± 0.00071 | 0.0155 ± 0.03 | -0.023 ± 0.061 | 0.0005 ± 0.00071 | -0.0055 ± 0.023 | -0.016 ± 0.052 |
| SAg:CXCL8/IL-8 | 0.022 ± 0.1 | -0.038 ± 0.061 | -0.13 ± 0.021 | -0.304 ± 0.013 | -0.049 ± 0.052 | -0.009 ± 0.038 | 0.0035 ± 0.084 | -0.0025 ± 0.023 | -0.001 ± 0.014 | 0.049 ± 0.037 |
| BF4T:uPA | 0 ± 0.0099 | -0.008 ± 0.0042 | -0.033 ± 0.0028 | -0.026 ± 0.0099 | 0.01 ± 0.0028 | 0.004 | 0.0105 ± 0.0078 | -0.026 ± 0.02 | 0.006 ± 0.0014 | -0.014 ± 0.027 |
| SAg:CXCL9/MIG | 0.006 ± 0.024 | 0.002 ± 0.0057 | 0.0025 ± 0.0078 | 0.008 ± 0.0085 | -0.0005 ± 0.0064 | -0.001 ± 0.0085 | 0.0055 ± 0.005 | -0.0105 ± 0.00071 | 0.002 ± 0.014 | -0.002 ± 0.02 |
| BT:PBMC Cytotoxicity | 0.002 ± 0.023 | 0.002 ± 0.018 | -0.054 ± 0.017 | -0.085 ± 0.04 | -0.024 ± 0.028 | -0.0405 ± 0.028 | 0.004 ± 0.0057 | 0.03 ± 0.044 | 0.039 ± 0.027 | 0.057 ± 0.0057 |
| BE3C:CD87/uPAR | 0.0185 ± 0.029 | -0.014 ± 0.0042 | -0.0175 ± 0.057 | -0.0435 ± 0.063 | -0.002 ± 0.0085 | -0.0105 ± 0.00071 | 0.0205 ± 0.00071 | -0.035 ± 0.0028 | -0.044 ± 0.016 | -0.037 ± 0.027 |
| SAg:CCL2/MCP-1 | -0.004 ± 0.017 | -0.0275 ± 0.0064 | -0.054 ± 0.011 | -0.112 ± 0.056 | -0.01 ± 0.0057 | -0.0255 ± 0.0078 | 0.0135 ± 0.018 | -0.0225 ± 0.0092 | -0.0075 ± 0.0064 | 0.0185 ± 0.033 |
| BE3C:CXCL9/MIG | -0.006 ± 0.0085 | 0.0005 ± 0.0035 | -0.0025 ± 0.013 | -0.0015 ± 0.013 | 0.005 ± 0.0014 | 0 ± 0.0099 | 0.001 ± 0.0099 | 0.01 ± 0.034 | 0.0025 ± 0.023 | 0.013 ± 0.0057 |
| LPS:sTNF-alpha | -0.0135 ± 0.022 | -0.015 ± 0.0099 | -0.035 ± 0.017 | -0.233 ± 0.0078 | -0.009 ± 0.0014 | -0.0005 ± 0.021 | -0.0515 ± 0.0021 | 0.002 ± 0.028 | -0.0175 ± 0.023 | -0.0075 ± 0.026 |
| 3C:CD87/uPAR | 0.0255 ± 0.037 | 0.016 ± 0.033 | 0.0565 ± 0.018 | 0.044 ± 0.0071 | -0.0065 ± 0.0035 | -0.0115 ± 0.00071 | -0.01 ± 0.0099 | -0.007 ± 0.027 | -0.0075 ± 0.00071 | -0.0235 ± 0.022 |
| BT:sIL-6 | -0.0045 ± 0.042 | -0.0485 ± 0.074 | -0.228 ± 0.013 | -0.563 ± 0.0042 | -0.0375 ± 0.079 | 0.013 ± 0.062 | -0.037 ± 0.021 | -0.035 ± 0.061 | 0.004 ± 0.067 | 0.012 ± 0.02 |
| 3C:CXCL9/MIG | 0.003 | 0.003 ± 0.0014 | 0.0025 ± 0.005 | 0.0125 ± 0.0035 | -0.0065 ± 0.012 | -0.0045 ± 0.00071 | 0.0025 ± 0.012 | 0.009 ± 0.016 | 0.009 ± 0.017 | 0.0175 ± 0.0021 |
| SAg:Proliferation | -0.017 ± 0.047 | -0.052 ± 0.035 | -0.172 ± 0.005 | -0.29 ± 0.021 | 0.0065 ± 0.011 | 0.003 ± 0.021 | 0.027 ± 0.0042 | -0.0295 ± 0.11 | -0.0385 ± 0.023 | 0.039 ± 0.017 |
| LPS:CXCL8/IL-8 | 0.035 ± 0.025 | 0.0065 ± 0.013 | 0.0085 ± 0.0092 | -0.049 ± 0.072 | 0.0035 ± 0.016 | 0.011 ± 0.0028 | 0.0575 ± 0.0035 | 0.0225 ± 0.019 | 0.0125 ± 0.021 | 0.0765 ± 0.00071 |
| BT:B cell Proliferation | -0.0315 ± 0.0064 | -0.0305 ± 0.0092 | -0.0555 ± 0.005 | -0.123 ± 0.026 | -0.047 ± 0.048 | -0.0035 ± 0.042 | 0.0275 ± 0.063 | -0.0025 ± 0.016 | 0.0085 ± 0.016 | 0.038 ± 0.0014 |
| SAg:PBMC Cytotoxicity | -0.007 ± 0.033 | -0.0015 ± 0.044 | -0.0385 ± 0.03 | -0.0635 ± 0.023 | -0.0155 ± 0.046 | 0.002 ± 0.0028 | 0.009 ± 0.073 | -0.029 ± 0.038 | -0.0315 ± 0.036 | 0.023 ± 0.024 |
| BF4T:MMP-3 | 0.01 ± 0.02 | -0.02 ± 0.018 | -0.015 ± 0.0057 | 0.0235 ± 0.052 | 0.003 ± 0.024 | -0.0095 ± 0.00071 | 0.0295 ± 0.043 | 0.014 ± 0.0014 | 0.001 | 0.042 ± 0.033 |
| BE3C:CD54/ICAM-1 | 0 ± 0.018 | -0.0115 ± 0.013 | -0.0075 ± 0.0078 | -0.001 ± 0.031 | 0.0065 ± 0.00071 | -0.0145 ± 0.0064 | -0.014 ± 0.013 | -0.0185 ± 0.0021 | -0.009 ± 0.0028 | -0.021 ± 0.0057 |
| SAg:CD38 | 0.0035 ± 0.0035 | -0.0035 ± 0.00071 | -0.0265 ± 0.013 | -0.0765 ± 0.03 | 0.003 ± 0.023 | -0.004 ± 0.0014 | -0.0005 ± 0.025 | -0.005 ± 0.0028 | -0.0085 ± 0.0064 | -0.0155 ± 0.00071 |
| LPS:CD62E/E-Selectin | 0.0155 ± 0.0035 | 0.0075 ± 0.015 | 0.0145 ± 0.013 | -0.006 | -0.01 ± 0.0042 | -0.0065 ± 0.012 | -0.003 ± 0.0028 | 0.007 ± 0.0071 | 0.0255 ± 0.0092 | 0.028 ± 0.023 |
| SAg:CD69 | 0.0215 ± 0.044 | -0.0295 ± 0.016 | -0.039 ± 0.018 | -0.12 ± 0.013 | -0.0065 ± 0.00071 | -0.0115 ± 0.021 | -0.0125 ± 0.0092 | -0.008 ± 0.0028 | -0.013 ± 0.017 | -0.043 ± 0.037 |
| LPS:sPGE2 | -0.0075 ± 0.033 | 0.037 | -0.022 ± 0.018 | -0.0985 ± 0.03 | 0.025 ± 0.052 | 0.013 ± 0.021 | -0.009 ± 0.041 | 0.0595 ± 0.011 | 0.041 ± 0.051 | 0.0355 ± 0.043 |
| BE3C:CXCL11/I-TAC | -0.0205 ± 0.035 | 0.008 ± 0.0028 | 0.01 ± 0.031 | 0.025 ± 0.051 | 0.008 ± 0.014 | 0.0065 ± 0.0064 | 0.027 ± 0.0042 | 0.0115 ± 0.012 | 0.0065 ± 0.00071 | 0.007 ± 0.0071 |
| 4H:CCL2/MCP-1 | 0.018 ± 0.096 | 0.0255 ± 0.04 | -0.035 ± 0.1 | 0.0055 ± 0.042 | -0.0105 ± 0.00071 | -0.027 ± 0.0071 | 0.012 ± 0.021 | -0.021 ± 0.0042 | -0.0095 ± 0.023 | -0.017 ± 0.018 |
| LPS:SRB | -0.002 ± 0.0099 | -0.0105 ± 0.0078 | -0.0215 ± 0.013 | -0.039 ± 0.014 | -0.013 ± 0.0071 | -0.009 | -0.0065 ± 0.0078 | 0.0065 ± 0.011 | 0.004 ± 0.0057 | 0.002 ± 0.0057 |
| BF4T:CXCL8/IL-8 | -0.013 ± 0.011 | -0.0325 ± 0.0064 | -0.0455 ± 0.016 | -0.0405 ± 0.016 | -0.0055 ± 0.025 | 0.0155 ± 0.0078 | 0.0415 ± 0.042 | -0.0205 ± 0.0064 | 0.006 ± 0.0057 | 0.0095 ± 0.013 |
